| SMILES | melting point [°C] |
| --- | --- |
| CC(C)CC(C)c1ccccc1NC(=O)c1nn(C)nc1C(F)(F)F (centres unmarked) [Compound 2.219, 2-methyl-5-trifluoromethyl-2H-1,2,3-triazole-4-carboxylic acid [2-(1,3-dimethyl-butyl)-phenyl]-amide] | 94.6 to 95.4 |
| Cn1nc(C(=O)Nc2cc(Cl)ccc2-c2ccccc2)c(C(F)F)n1 [Compound 3.017, 5-difluoromethyl-2-methyl-2H-1,2,3-triazole-4-carboxylic acid (4-chloro-biphenyl-2-yl)-amide] | 155 to 156 |

Reference: US7956194B2, “Microbiocidal (E.G. fungicidal) 1,2,3-triazole derivatives” (Syngenta Crop Protection, Inc., priority 2002, dated 2011)
